Measurements: BindingDB's records for doi:10.1021/jm00177a018 (1980)

Biological target: Aldehyde oxidase (Oryctolagus cuniculus)
Test: Tested for its ability to inhibit rabbit liver aldehyde oxidase catalyzed oxidation of N-methyl-nicotinamide (NMN)

SMILES | Ki [µM]
CCOC(CCP(=O)(OCC)OCC)OCC | 200
CCOP(=O)(CC=O)OCC | 300
CCOP(=O)(CCC=O)c1ccccc1 (stereo not drawn) | 100
